The values that follow come from patent US20090317414A1, “CANCER VACCINE COMPRISING A MUCIN 1 (MUC1) T CELL EPITOPE-DERIVED PEPTIDE” (4G VACCINES PTY LTD, priority 2006, published 2009).

The target in assay [1] is T1, soluble H-2K^b (Mus musculus, UniProt P01901).
T1 construct: heavy chain residues 1-274 with C-terminal His-tag and β2-microglobulin residues 1-99; His-tag (C); made in house; host or cells: Drosophila melanogaster cells
T1 sequence (P01901 22-295): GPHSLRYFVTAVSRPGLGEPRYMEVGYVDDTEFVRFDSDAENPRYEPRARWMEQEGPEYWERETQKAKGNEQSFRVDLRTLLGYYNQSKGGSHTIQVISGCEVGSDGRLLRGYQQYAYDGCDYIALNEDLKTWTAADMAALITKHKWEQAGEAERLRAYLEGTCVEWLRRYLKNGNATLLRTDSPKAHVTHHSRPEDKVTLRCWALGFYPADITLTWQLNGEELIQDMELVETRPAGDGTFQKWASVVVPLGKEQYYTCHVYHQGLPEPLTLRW
T1 sequence (P01887 21-119 partner): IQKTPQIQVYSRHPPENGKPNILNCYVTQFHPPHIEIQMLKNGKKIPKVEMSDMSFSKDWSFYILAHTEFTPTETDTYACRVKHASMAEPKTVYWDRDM
The experiment in a line: Affinity measurements for binding of peptides to soluble H-2K^b (inhibition assay). Conditions: for increase in peptide affinity compared to MUC1-8 (competition studies): discussion, temperature not stated. The procedure:
The soluble extracellular domains of H-2K^b (heavy chain […]-terminal His-tag and β2-microglobulin […]. melanogaster cells, under the control of a metallothionein promoter as previously described. Briefly, D. melanogaster cells were expanded to large scale (up to 6 L) in serum free Insect Xpress® media (Cambrex Corporation, East Rutherford, N.J., United States of America) and CuSO4 (625 μM final concentration) was added 3-5 days before harvesting to induce expression of H-2K^b. The supernatant was concentrated using a […] tangential flow concentrator (PALL Corporation, East Hills, N.Y., United States of America) using a 10 kDa MWCO membrane (PALL) and then loaded onto an Ni-NTA column and eluted using 10-250 mM imidazole buffer gradient, pH 7.5. […] Affinity measurements for binding of peptides to soluble H-2K^b molecules were performed as previously described.

Assay [2] deals with MCF7 cells (human MUC1^+ breast cancer cell line). As to conditions: HLA-A2 transgenic mice; previous studies [59]; cited from earlier work.
Assay [3] relates to MUC1×HLA-A2 transgenic mice. The experiment in a line: IFN-γ ELISpot on splenocytes of MUC1×HLA-A2 transgenic mice immunised with peptide-pulsed DC. Type of assay: in vivo, mouse. As to conditions: for recognition of all peptides higher than MUC1-8: MUC1×HLA-A2 transgenic mice. As to the method: (§1) C57BL/6 (H-2^b) or MUC1×HLA-A2 (H-2^b/H-2^d/HLA-A2) transgenic 6-8 week old mice were used. Bone marrow cells from C57BL/6 or MUC1×HLA-A2 female mice were cultured at 1×10^6 cells/ml in tissue culture media, supplemented with 10 ng/ml GM-CSF/IL-4. At day 6, cells were washed, re-suspended in the same culture media and 20 μg/ml peptides were loaded on DCs for 3 hr. Pulsed DC were washed and 100 μl (1-2×10^6 cells) injected intradermally in female mice into the base of tail. After 14 days mice were boosted and 16 days later splenocytes assessed by ELISpot.
(§2) To assess peptide specific IFN-γ production by CD8^+ T cells to each peptide, splenocytes from immunised mice were used in IFN-γ ELISpot assays. Spleen cells were incubated with 10^−5-10^−10 M of each MUC1 peptide, irrelevant peptide (OVA8, […]; SEQ ID NO: 8) or internal positive control concanavalin A (ConA) for 18 hr at 37° C., 8% CO2 on nitrocellulose plates [pre-coated with an anti-murine IFN-γ monoclonal antibody]. Plates were developed as previously described.

Assay [4] concerns the target T2, MHC class I, H-2K^b on RMA-S cells (Mus musculus, UniProt P01901).
T2 construct: MHC class I molecules in the murine cell line RMA-S; endogenous in cells; host or cells: RMA-S (murine, C57BL/6, TAP2-deficient)
T2 sequence (P01901 22-369): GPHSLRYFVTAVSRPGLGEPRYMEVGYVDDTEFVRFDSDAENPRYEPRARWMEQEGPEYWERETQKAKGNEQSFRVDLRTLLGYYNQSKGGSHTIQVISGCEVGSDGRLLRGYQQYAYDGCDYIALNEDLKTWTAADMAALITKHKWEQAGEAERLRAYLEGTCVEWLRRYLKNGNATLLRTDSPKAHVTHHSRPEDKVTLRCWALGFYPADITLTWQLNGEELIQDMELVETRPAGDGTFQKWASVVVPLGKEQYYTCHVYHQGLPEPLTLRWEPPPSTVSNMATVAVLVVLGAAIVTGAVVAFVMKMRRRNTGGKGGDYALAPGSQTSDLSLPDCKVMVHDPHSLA
T2 sequence (P01887 21-119 partner): T1 sequence (P01887 21-119 partner)
The experiment in a line: Peptide stabilisation assay using RMA-S cells (FACScan). Conditions: TAP2-deficient RMA-S cells at 26° C. Type of assay: cell-based, murine. The procedure: MHC class I molecules in the murine cell line RMA-S (C57BL/6 TAP2-deficient cells) can be used to measure the direct binding of peptides to class I molecules in vitro. RMA-S cells (5×10^5 cells) were incubated with peptides (10^−4-10^−13 M) at 26° C. for 3 hr then transferred to 37° C. for 30 min. After washing with 0.5% BSA/PBS (2 ml), anti-H-2K^b (HB-158) IgG2a as supernatant (1/50 dilution, 100 μl) was added to RMA-S peptide loaded cells and incubated for 45 minutes at 4° C. The cells were washed once again and 100 μl (1:500 dilution) of FITC-conjugated sheep (Fab′)2 anti-mouse immunoglobulin was added and incubated for 45 min at 4° C.; after further washing, cells were analyzed by FACScan.

The test system of assay [5] is C57BL/6 mice. Put plainly: IFN-γ ELISpot on splenocytes of C57BL/6 mice immunised with peptide-pulsed DC. Type of assay: in vivo, mouse. The procedure: as §1, §2
Assay [6] addresses HLA-A2 (Homo sapiens, UniProt P04439, D140Y/D185E/D98H/E176V/E277Q/G131W/G231S/I119V/I121R/I166T/I218V/L10V/L300P/L318F/N151K/N90K/P208A/P217A/Q86G/Q94H/R138H/R169H/T345S). As to conditions: cited from earlier work.
Assay [7] deals with MCF7 cells (human MUC1^+ breast cancer cell line). Put plainly: Standard 51Cr CTL assay after immunisation of HLA-A2/K^b transgenic mice. Format: in vivo, mouse. As to conditions: HLA-A2 transgenic mice immunised with peptide-KLH-oxidised mannan. The procedure:
Peptide was coupled to KLH via glutaraldehyde. In brief, 2 mg KLH in 1 ml phosphate buffer saline (PBS) and 2 mg peptide in 1 ml PBS were mixed and added dropwise to 1 ml of 0.75% glutaraldehyde, and reacted overnight at room temperature. Glutaraldehyde is a bi-functional coupling reagent that links two compounds through their amino groups.
14 mg mannan was dissolved in 1 ml sodium phosphate buffer (pH 6), followed by the addition of 100 μl 0.1 M sodium periodate (dissolved in pH 6 phosphate buffer) and incubated on ice for 1 hour in the dark. 10 μL ethanediol was then added to the mixture and incubated for a further 30 mins on ice. The resultant mixture (oxidised mannan) was passed through a PD-10 column (Sephadex G-25 M column) pre-equilibrated in pH 9.0 phosphate buffer, to exclude out sodium periodate and ethanediol. Oxidised mannan (7 mg/ml) was eluted with 2 ml of pH 9 phosphate buffer, to which 1 mg peptide-KLH was added and allowed to react overnight at room temperature in the dark. Conjugation occurs via Schiff base formation between free amino groups of KLH and oxidised mannan. Samples were used without further purification. […]
HLA-A2/K^b transgenic mice were immunised with 5 μg of peptide intraperitoneally on days 0, 10, 17 and 7-10 days later CTL responses were measured using standard CTL assay as previously described.

[8] abbreviates: 4° C., means of 5 values, SE 10-15%, read-out: KD 4° C.
The mark [9] stands for this setting: 23° C., means of 5 values, SE 10-15%, read-out: KD 23° C.
Setting [10] is: 37° C., means of 5 values, SE 10-15%, read-out: KD 37° C.

Where two headings read alike, the source gives them in different places. No end group written: not given here. A value given as a limit tells only on which side of the number the result lay.

As to `CC[C@H](C)[C@H](NC(=O)[C@@H](NC(=O)[C@@H](N)CO)[C@@H](C)CC)C(=O)N[C@@H](CC(N)=O)C(=O)N[C@@H](Cc1ccccc1)C(=O)N[C@@H](CCC(=O)O)C(=O)N[C@@H](CCCCN)C(=O)N[C@@H](CC(C)C)C(=O)O` [OVA8, reference compound], the Kd in assay [1] (setting [8]) was 6 nM; in assay [1] (setting [9]), 10 nM.

Regarding `CC(C)C[C@H](NC(=O)CNC(=O)[C@H](CCC(N)=O)NC(=O)[C@H](Cc1ccc(O)cc1)NC(=O)[C@@H](NC(=O)[C@H](Cc1ccc(O)cc1)NC(=O)CNC(=O)[C@@H](N)CCCNC(=N)N)C(C)C)C(=O)O` [VSV8, reference compound], the Kd in assay [1] (KD 4° C.) worked out at 34 nM; in assay [1] (KD 23° C.), 27 nM; in assay [1] (KD 37° C.), 163 nM.

For “DLHWASWV-KLH-oxidised mannan: mimic mutant peptide DLHWASWV conjugated to KLH and oxidised mannan, used as control (also: conjugated to KLH and oxidised mannan)”, in assay [2], the “CTL lysis of MCF7 cells, in words” value is given as “able to specifically lyse MCF7 cells”.

As to SAPDFRPA [MUC1-8-5F], the “recognition of all peptides higher than MUC1-8” value in assay [3] is listed as 10 fold. Also, the Kd was 460 nM in assay [1] (setting [8]), 130 nM in assay [1] (setting [9]) and 4900 nM in assay [1] (setting [10]). The “increased peptide affinity by mutation of MUC1-8” value (from here on “increased peptide affinity”) in assay [1] (at 23° C. and 37° C.) is given as “at least 7 fold”. Also, the “increase in peptide affinity compared to MUC1-8 (competition studies)” value (shortened to “increase in peptide affinity”) in assay [1] amounted to 7 fold. For the same compound, the “peptide concentration at which H-2K^b was stabilised” value in assay [4] was > 10^−7 M.

For the compound SAPDFRPL [MUC1-8-5F8L], the “T cell response by IFN-γ ELISpot, in words” value is given as “generated even higher affinity T cells which recognised all peptides” in assay [3] (MUC1×HLA-A2 transgenic mice (MUC1-8 is self)) and “the number of sfu/500,000 was higher” in assay [5] (C57BL/6 mice). The Kd in assay [1] (setting [8]) is 160 nM; in assay [1] (setting [9]), 60 nM; in assay [1] (setting [10]), 300 nM. Moreover, the “increased peptide affinity” value in assay [1] (at 23° C.) was 14 fold. The “increase in peptide affinity” value in assay [1] was found to be 14 fold. The precursor frequency in assay [5] (after immunisation, mouse strain not given) is 400 sfu/500,000 cells. For the same compound, the “peptide concentration at which H-2K^b was stabilised” value in assay [4] is given as > 10^−9 M.

With SAPDTRPA [MUC1-8, reference compound], the Kd in assay [1] (setting [8]) is 433 nM; in assay [1] (4° C., read-out: affinity measured in an inhibition assay) it was 430 nM; in assay [1] (setting [9]), 877 nM; in assay [1] (23° C., read-out: affinity measured in an inhibition assay) it was 870 nM; in assay [1] (setting [10]), 37000 nM.

SAPDTRPL [MUC1-8-8L]: in assay [3], the “recognition of all peptides higher than MUC1-8” value is 10 fold. Moreover, the Kd worked out at 150 nM in assay [1] (setting [8]), 250 nM in assay [1] (setting [9]) and 8900 nM in assay [1] (setting [10]). Also, the “increased peptide affinity” value in assay [1] (at 23° C. and 37° C.) is on record as “at least 3 fold”. Besides, the “increase in peptide affinity” value in assay [1] turned out to be 3 fold. Besides, in assay [5] (C57BL/6 mice immunised with peptide-pulsed DC), the “peptide concentration at which IFN-γ secreting T cells recognised all peptides” value is recorded as 10^−9-10^−5 M. In addition, the “peptide concentration at which H-2K^b was stabilised” value in assay [4] is listed as > 10^−6 M.

Regarding STAPPAHGV (listed as Homo sapiens), the “binding affinity to HLA-A2, in words” value in assay [6] is on record as “low-medium affinity”.

“TTAPPVHGL (Artifical sequence derived from human or mouse MUC1 T cell epitope)”: the “CTL lysis of MCF7 cells, in words” value in assay [7] is “lysed MCF7 cells similarly to STAPPAHGV”.

For the compound “TTAPPVHGL-KLH-oxidised mannan: peptide TTAPPVHGL coupled to KLH via glutaraldehyde and then to oxidised mannan (also: conjugated to KLH, conjugated to oxidised mannan)”, in assay [7], the “CTL lysis of MCF7 cells, in words” value is “able to specifically lyse MCF7 cells”.
